pEC50: −log10 of the molar value.
Target: T1, M4-receptor (Homo sapiens, UniProt P08173)
T1 sequence (P08173 1-479): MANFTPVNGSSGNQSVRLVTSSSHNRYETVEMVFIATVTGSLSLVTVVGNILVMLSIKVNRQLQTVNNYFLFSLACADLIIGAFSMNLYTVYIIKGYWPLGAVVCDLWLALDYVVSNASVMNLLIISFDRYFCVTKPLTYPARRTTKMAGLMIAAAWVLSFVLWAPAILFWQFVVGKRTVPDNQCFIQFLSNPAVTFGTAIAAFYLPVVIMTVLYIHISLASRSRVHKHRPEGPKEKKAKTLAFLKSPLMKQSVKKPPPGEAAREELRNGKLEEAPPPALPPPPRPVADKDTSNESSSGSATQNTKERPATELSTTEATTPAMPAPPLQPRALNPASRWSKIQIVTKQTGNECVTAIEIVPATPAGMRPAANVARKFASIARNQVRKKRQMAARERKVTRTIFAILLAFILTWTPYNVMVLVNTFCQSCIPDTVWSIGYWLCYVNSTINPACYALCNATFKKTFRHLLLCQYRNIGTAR
Test: M4-receptor functional agonist assay
Format: cell-based
Parameters: expressed in transfected cells
Experimental: Functional assays were performed using the Alphascreen Surefire phopho-ERK1/2 assay. […] Once adhered, cells were serum starved overnight. Agonist stimulation was performed by the addition of […] agonist to the cells for a pre-optimized 5 min period (37°C). Media was removed and 50 μl of lysis buffer added. After 15 min a 4 μl sample was transferred to a 384-well plate and 7 μl of detection mixture added.

Compound: CCOC(=O)N1CCC[C@H](N2CCC(C(=O)NC3(C)CCC3)CC2)CC1 [HTL9936, ethyl (S)-4-(4-((1-methylcyclobutyl)carbamoyl)piperidin-1-yl)azepane-1-carboxylate]
- pEC50: 6.40
- M4-receptor agonist activity: partial agonist activity
